Data published in the kinase profiling compilation of Christmann-Franck et al. (2016).

Tests used:
Test in all cases: radiometric filter-binding kinase assay
RPS6KA3 KD1 KD2 (human) = RPS6KA3 KD1 KD2 (human) (UniProt P51812)
PHKG1 (human) = PHKG1 (human) (UniProt Q16816); settings: compound 10.0 µM
SYK (human) = SYK (human) (UniProt P43405); settings: compound 10.0 µM

Sequence of RPS6KA3 KD1 KD2 (human) (P51812 whole entry, looked up): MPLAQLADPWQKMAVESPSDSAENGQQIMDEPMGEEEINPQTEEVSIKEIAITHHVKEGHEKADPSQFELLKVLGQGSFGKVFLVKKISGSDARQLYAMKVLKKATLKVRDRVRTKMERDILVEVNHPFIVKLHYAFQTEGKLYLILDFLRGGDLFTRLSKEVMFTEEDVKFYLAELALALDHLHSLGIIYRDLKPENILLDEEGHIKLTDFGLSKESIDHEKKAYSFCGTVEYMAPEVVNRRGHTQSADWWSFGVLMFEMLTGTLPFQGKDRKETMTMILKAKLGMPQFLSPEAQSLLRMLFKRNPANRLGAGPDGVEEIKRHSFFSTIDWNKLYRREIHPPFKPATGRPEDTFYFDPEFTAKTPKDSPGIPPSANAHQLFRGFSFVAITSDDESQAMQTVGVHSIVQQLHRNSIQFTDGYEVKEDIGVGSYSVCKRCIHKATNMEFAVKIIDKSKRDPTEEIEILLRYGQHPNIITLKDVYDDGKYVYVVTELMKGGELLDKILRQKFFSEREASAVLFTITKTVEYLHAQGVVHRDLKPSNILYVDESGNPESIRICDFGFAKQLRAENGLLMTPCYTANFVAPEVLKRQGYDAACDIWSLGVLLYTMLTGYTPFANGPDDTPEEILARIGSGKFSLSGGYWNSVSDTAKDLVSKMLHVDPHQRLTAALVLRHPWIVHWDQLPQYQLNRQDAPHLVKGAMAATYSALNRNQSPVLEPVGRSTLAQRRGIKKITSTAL
Sequence of PHKG1 (human) (Q16816 whole entry, looked up): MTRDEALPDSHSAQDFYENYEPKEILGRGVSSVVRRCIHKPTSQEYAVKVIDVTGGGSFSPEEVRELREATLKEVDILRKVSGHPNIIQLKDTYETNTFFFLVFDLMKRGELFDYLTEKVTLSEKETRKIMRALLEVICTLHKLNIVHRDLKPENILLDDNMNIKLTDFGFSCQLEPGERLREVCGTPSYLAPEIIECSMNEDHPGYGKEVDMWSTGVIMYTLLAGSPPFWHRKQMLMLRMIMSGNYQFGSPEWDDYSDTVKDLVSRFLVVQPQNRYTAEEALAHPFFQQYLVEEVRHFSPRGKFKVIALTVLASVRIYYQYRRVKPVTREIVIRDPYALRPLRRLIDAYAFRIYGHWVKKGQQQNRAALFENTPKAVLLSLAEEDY

Cc1nc(N)sc1-c1csc(Nc2cccnc2)n1
residual activity (RPS6KA3 KD1 KD2 (human); compound 10.0 µM): 50%
residual activity (RPS6KA3 KD1 KD2 (human); compound 100.0 µM): 10%
residual activity (PHKG1 (human)): 54%
residual activity (SYK (human)): 100%
